Patent US20250339399A1, “SUPRAMOLECULAR SELF-ASSEMBLY SYSTEM” (Beijing Creatron Institute of Pharmaceutical Research Co., …, priority 2022, published 2025)

assay: Binary supramolecular self-assembly systems of polymer and target: guest concentration over incubation time (Comparative Example 2); type: physicochemical; conditions: binary system with 0.5% polymer 101; incubation 0.5 h
Experimental: Experiments were conducted according to the steps in Comparative Example 1, and quantitative analysis was carried out using the analytical method for each target to investigate the regulation ability […] stacking.

SMILES	Concentration of the target in the solution measured after different incubation time
CC#CC(=O)N1CCC[C@H]1c1nc(-c2ccc(C(=O)Nc3ccccn3)cc2)c2c(N)nccn12 [Acalabrutinib, acalabrutinib]	209.1 µg/mL
COC(=O)[C@H](c1ccccc1Cl)N1CCc2sccc2C1 [Clopidogrel, clopidogrel]	415.1 µg/mL

same assay, conditions: binary system with 0.5% polymer 101; incubation 3 h

SMILES	Concentration of the target in the solution measured after different incubation time
CC#CC(=O)N1CCC[C@H]1c1nc(-c2ccc(C(=O)Nc3ccccn3)cc2)c2c(N)nccn12 [Acalabrutinib, acalabrutinib]	193.9 µg/mL
COC(=O)[C@H](c1ccccc1Cl)N1CCc2sccc2C1 [Clopidogrel, clopidogrel]	421.5 µg/mL

same assay, conditions: binary system with 0.5% polymer 101; incubation 6 h

SMILES	Concentration of the target in the solution measured after different incubation time
CC#CC(=O)N1CCC[C@H]1c1nc(-c2ccc(C(=O)Nc3ccccn3)cc2)c2c(N)nccn12 [Acalabrutinib, acalabrutinib]	197.8 µg/mL
COC(=O)[C@H](c1ccccc1Cl)N1CCc2sccc2C1 [Clopidogrel, clopidogrel]	361.7 µg/mL

same assay, conditions: binary system with 0.5% polymer 102; incubation 0.5 h

SMILES	Concentration of the target in the solution measured after different incubation time
Cc1c(C)c2c(c(C)c1O)CC[C@@](C)(CCC[C@H](C)CCC[C@H](C)CCCC(C)C)O2 [Vitamin E, vitamin E]	28.6 µg/mL
CC#CC(=O)N1CCC[C@H]1c1nc(-c2ccc(C(=O)Nc3ccccn3)cc2)c2c(N)nccn12 [Acalabrutinib, acalabrutinib]	566.6 µg/mL
COC(=O)[C@H](c1ccccc1Cl)N1CCc2sccc2C1 [Clopidogrel, clopidogrel]	29.1 µg/mL

same assay, conditions: binary system with 0.5% polymer 102; incubation 3 h

SMILES	Concentration of the target in the solution measured after different incubation time
Cc1c(C)c2c(c(C)c1O)CC[C@@](C)(CCC[C@H](C)CCC[C@H](C)CCCC(C)C)O2 [Vitamin E, vitamin E]	57.9 µg/mL
CC#CC(=O)N1CCC[C@H]1c1nc(-c2ccc(C(=O)Nc3ccccn3)cc2)c2c(N)nccn12 [Acalabrutinib, acalabrutinib]	580.9 µg/mL
COC(=O)[C@H](c1ccccc1Cl)N1CCc2sccc2C1 [Clopidogrel, clopidogrel]	28.5 µg/mL

same assay, conditions: binary system with 0.5% polymer 102; incubation 6 h

SMILES	Concentration of the target in the solution measured after different incubation time
Cc1c(C)c2c(c(C)c1O)CC[C@@](C)(CCC[C@H](C)CCC[C@H](C)CCCC(C)C)O2 [Vitamin E, vitamin E]	36.4 µg/mL
CC#CC(=O)N1CCC[C@H]1c1nc(-c2ccc(C(=O)Nc3ccccn3)cc2)c2c(N)nccn12 [Acalabrutinib, acalabrutinib]	608.2 µg/mL
COC(=O)[C@H](c1ccccc1Cl)N1CCc2sccc2C1 [Clopidogrel, clopidogrel]	26.1 µg/mL

same assay, conditions: binary system with 0.5% polymer 103; incubation 0.5 h

SMILES	Concentration of the target in the solution measured after different incubation time
CC#CC(=O)N1CCC[C@H]1c1nc(-c2ccc(C(=O)Nc3ccccn3)cc2)c2c(N)nccn12 [Acalabrutinib, acalabrutinib]	292.1 µg/mL
COC(=O)[C@H](c1ccccc1Cl)N1CCc2sccc2C1 [Clopidogrel, clopidogrel]	69.1 µg/mL

same assay, conditions: binary system with 0.5% polymer 103; incubation 3 h

SMILES	Concentration of the target in the solution measured after different incubation time
CC#CC(=O)N1CCC[C@H]1c1nc(-c2ccc(C(=O)Nc3ccccn3)cc2)c2c(N)nccn12 [Acalabrutinib, acalabrutinib]	321.4 µg/mL
COC(=O)[C@H](c1ccccc1Cl)N1CCc2sccc2C1 [Clopidogrel, clopidogrel]	69.6 µg/mL

same assay, conditions: binary system with 0.5% polymer 103; incubation 6 h

SMILES	Concentration of the target in the solution measured after different incubation time
CC#CC(=O)N1CCC[C@H]1c1nc(-c2ccc(C(=O)Nc3ccccn3)cc2)c2c(N)nccn12 [Acalabrutinib, acalabrutinib]	246.4 µg/mL
COC(=O)[C@H](c1ccccc1Cl)N1CCc2sccc2C1 [Clopidogrel, clopidogrel]	64.5 µg/mL

same assay, conditions: binary system with 0.5% polymer 106; incubation 0.5 h

SMILES	Concentration of the target in the solution measured after different incubation time
CC#CC(=O)N1CCC[C@H]1c1nc(-c2ccc(C(=O)Nc3ccccn3)cc2)c2c(N)nccn12 [Acalabrutinib, acalabrutinib]	184.1 µg/mL
COC(=O)[C@H](c1ccccc1Cl)N1CCc2sccc2C1 [Clopidogrel, clopidogrel]	37.0 µg/mL

same assay, conditions: binary system with 0.5% polymer 106; incubation 3 h

SMILES	Concentration of the target in the solution measured after different incubation time
CC#CC(=O)N1CCC[C@H]1c1nc(-c2ccc(C(=O)Nc3ccccn3)cc2)c2c(N)nccn12 [Acalabrutinib, acalabrutinib]	124.3 µg/mL
COC(=O)[C@H](c1ccccc1Cl)N1CCc2sccc2C1 [Clopidogrel, clopidogrel]	39.3 µg/mL

same assay, conditions: binary system with 0.5% polymer 106; incubation 6 h

SMILES	Concentration of the target in the solution measured after different incubation time
CC#CC(=O)N1CCC[C@H]1c1nc(-c2ccc(C(=O)Nc3ccccn3)cc2)c2c(N)nccn12 [Acalabrutinib, acalabrutinib]	159.4 µg/mL
COC(=O)[C@H](c1ccccc1Cl)N1CCc2sccc2C1 [Clopidogrel, clopidogrel]	39.5 µg/mL

same assay, conditions: binary system with 0.5% polymer 107; incubation 0.5 h

SMILES	Concentration of the target in the solution measured after different incubation time
CC#CC(=O)N1CCC[C@H]1c1nc(-c2ccc(C(=O)Nc3ccccn3)cc2)c2c(N)nccn12 [Acalabrutinib, acalabrutinib]	497.8 µg/mL
COC(=O)[C@H](c1ccccc1Cl)N1CCc2sccc2C1 [Clopidogrel, clopidogrel]	57.0 µg/mL

same assay, conditions: binary system with 0.5% polymer 107; incubation 3 h

SMILES	Concentration of the target in the solution measured after different incubation time
CC#CC(=O)N1CCC[C@H]1c1nc(-c2ccc(C(=O)Nc3ccccn3)cc2)c2c(N)nccn12 [Acalabrutinib, acalabrutinib]	171.6 µg/mL
COC(=O)[C@H](c1ccccc1Cl)N1CCc2sccc2C1 [Clopidogrel, clopidogrel]	37.8 µg/mL

same assay, conditions: binary system with 0.5% polymer 107; incubation 6 h

SMILES	Concentration of the target in the solution measured after different incubation time
CC#CC(=O)N1CCC[C@H]1c1nc(-c2ccc(C(=O)Nc3ccccn3)cc2)c2c(N)nccn12 [Acalabrutinib, acalabrutinib]	167.1 µg/mL
COC(=O)[C@H](c1ccccc1Cl)N1CCc2sccc2C1 [Clopidogrel, clopidogrel]	36.5 µg/mL

same assay, conditions: binary system with 0.5% polymer 110; incubation 0.5 h

SMILES	Concentration of the target in the solution measured after different incubation time
CC#CC(=O)N1CCC[C@H]1c1nc(-c2ccc(C(=O)Nc3ccccn3)cc2)c2c(N)nccn12 [Acalabrutinib, acalabrutinib]	427.6 µg/mL
COC(=O)[C@H](c1ccccc1Cl)N1CCc2sccc2C1 [Clopidogrel, clopidogrel]	64.7 µg/mL

same assay, conditions: binary system with 0.5% polymer 110; incubation 3 h

SMILES	Concentration of the target in the solution measured after different incubation time
CC#CC(=O)N1CCC[C@H]1c1nc(-c2ccc(C(=O)Nc3ccccn3)cc2)c2c(N)nccn12 [Acalabrutinib, acalabrutinib]	429.7 µg/mL
COC(=O)[C@H](c1ccccc1Cl)N1CCc2sccc2C1 [Clopidogrel, clopidogrel]	69.3 µg/mL

same assay, conditions: binary system with 0.5% polymer 110; incubation 6 h

SMILES	Concentration of the target in the solution measured after different incubation time
CC#CC(=O)N1CCC[C@H]1c1nc(-c2ccc(C(=O)Nc3ccccn3)cc2)c2c(N)nccn12 [Acalabrutinib, acalabrutinib]	460.8 µg/mL
COC(=O)[C@H](c1ccccc1Cl)N1CCc2sccc2C1 [Clopidogrel, clopidogrel]	64.4 µg/mL

assay: not given; conditions: cited from earlier work

SMILES	LogD7.4 or Log P
Cc1c(C)c2c(c(C)c1O)CC[C@@](C)(CCC[C@H](C)CCC[C@H](C)CCCC(C)C)O2 [Vitamin E, vitamin E]	10.50
CC#CC(=O)N1CCC[C@H]1c1nc(-c2ccc(C(=O)Nc3ccccn3)cc2)c2c(N)nccn12 [Acalabrutinib, acalabrutinib]	2.56
COC(=O)[C@H](c1ccccc1Cl)N1CCc2sccc2C1 [Clopidogrel, clopidogrel]	4.11

assay: Guest molecule concentration after incubation in initial medium without polymer (Comparative Example 1); type: physicochemical; conditions: 0.5 h; 37° C.; pH 6.8 phosphate buffer
Experimental: pH 2.0 hydrochloric acid, pH 4.5 acetate, and pH 6.5, pH 6.8, or pH 7.4 phosphate buffer solutions were prepared. The selection of each initial medium followed the principle that the solubility in the initial medium of the selected targets (or active ingredients) should low enough, but should meet the detection sensitivity and accuracy requirements of the corresponding analytical methods. Each buffer as initial media was placed in a 50 ml test tube with a stopper, shaken in a constant temperature air shaker at 37° C.±0.5° C., with an amplitude of 200 rpm, and incubated for 1 hour. […] Samples were taken at 0.5 h, 3 h and 6 h after incubation, centrifuged at 37° C., 13000 rpm for 5 minutes, and the supernatant was diluted at least 10 times with the mobile phase under the target analyte analytical method, filtered, the initial filtrate was discarded, and the continued filtrate was used as the test solution for injection analysis. The corresponding HPLC method under each target object item in Table 8 was used to determine the content of each target substance. When the solubility of the target in the initial medium is below the quantitative limit of the analytical method, a small amount of surfactant, such as sodium dodecyl sulfate (SDS), Tween20, or Tween80, can be added appropriately.
The above targets were incubated at 37° C.±0.5° C. for different time in an initial medium without any polymer. Each solid target formed by molecular stacking was removed by centrifugation, and the supernatant was analyzed using the HPLC method under each target item (see Table 8). The theoretical addition concentration of each target when its supramolecular self-assembly system was built was determined by its maximum dose in clinical use.

SMILES	Concentration of guest molecule measured after different incubated time
Cc1c(C)c2c(c(C)c1O)CC[C@@](C)(CCC[C@H](C)CCC[C@H](C)CCCC(C)C)O2 [Vitamin E, vitamin E]	20.9 µg/mL

same assay, conditions: 0.5 h; 37° C.; pH 7.4 phosphate buffer

SMILES	Concentration of guest molecule measured after different incubated time
CC#CC(=O)N1CCC[C@H]1c1nc(-c2ccc(C(=O)Nc3ccccn3)cc2)c2c(N)nccn12 [Acalabrutinib, acalabrutinib]	106.0 µg/mL

same assay, conditions: 3 h; 37° C.; pH 6.8 phosphate buffer

SMILES	Concentration of guest molecule measured after different incubated time
Cc1c(C)c2c(c(C)c1O)CC[C@@](C)(CCC[C@H](C)CCC[C@H](C)CCCC(C)C)O2 [Vitamin E, vitamin E]	17.9 µg/mL

same assay, conditions: 3 h; 37° C.; pH 7.4 phosphate buffer

SMILES	Concentration of guest molecule measured after different incubated time
CC#CC(=O)N1CCC[C@H]1c1nc(-c2ccc(C(=O)Nc3ccccn3)cc2)c2c(N)nccn12 [Acalabrutinib, acalabrutinib]	87.6 µg/mL

same assay, conditions: 6 h; 37° C.; pH 6.8 phosphate buffer

SMILES	Concentration of guest molecule measured after different incubated time
Cc1c(C)c2c(c(C)c1O)CC[C@@](C)(CCC[C@H](C)CCC[C@H](C)CCCC(C)C)O2 [Vitamin E, vitamin E]	11.9 µg/mL

same assay, conditions: 6 h; 37° C.; pH 7.4 phosphate buffer

SMILES	Concentration of guest molecule measured after different incubated time
CC#CC(=O)N1CCC[C@H]1c1nc(-c2ccc(C(=O)Nc3ccccn3)cc2)c2c(N)nccn12 [Acalabrutinib, acalabrutinib]	87.6 µg/mL
